# Experiments:
# [1] = tested on: human gastric cancer cell line MKN-74; test: Inhibitory effect on cancer at a specific site (subcutaneous tumor) of mice with MKN-74 tumor (Example 2); type: in vivo; conditions: DEG 5 μM in combination with Szd 16 μL in 200 μL PBS, intratumoral; ultrasound 1 W/cm^2, 1 MHz, 50% duty cycle, 10 minutes, three times on alternate days
# Description: Mice were inoculated subcutaneously with ca. 5×10^6 cells of human gastric cancer cell line MKN-74 and a PBS suspension (200 μL) composed of the ultrasound-sensitive substance (DEG; 5 μM) and the acoustic cavitation phenomenon-enhancing substance (Szd; 16 μL) was administered intratumorally, followed by irradiating the mice with ultrasound waves of 1 W/cm^2 and 1 MHZ under a condition of 50% duty cycle for 10 minutes using Sonitron 100. The ultrasound waves were irradiated three times on alternate days. The results of the cancer sizes are shown by arrow mark (↑) in FIG. 4.
# [2] = tested on: human gastric cancer cell line MKN-74; test: Ultrasonic treatment of SCID mice carrying subcutaneous MKN-74 cancer (Example 1); type: in vivo; conditions: DEG 5 μM + SONAZOID 16 μL in 300 μL saline, intratumoral; single treatment with low-intensity pulsed ultrasound 2 W/cm^2, 1 MHz, 50% duty cycle, 10 minutes; three weeks after treatment
# Description: SCID mice as cancer-carrying animals were inoculated subcutaneously with human gastric cancer cell line MKN-74 which was in turn grown to a diameter of the cancer size of approximately 20 mm and then subjected to treatment by ultrasound waves. The ultrasonic treatment was carried out using the porphyrin derivative, [7,12-bis(1-(2-(2-hydroxyethoxy)ethoxy)ethyl)-3,8,13,17-tetramethylporphyrin-2,18-dipropionato]manganese (DEG), as the ultrasound-sensitive substance and an ultrasound contrast agent containing lipid stabilized perfluorobutane microbubbles in an aqueous solution (SONAZOID™) as the acoustic cavitation phenomenon-enhancing substance by irradiating the mice with low-intensity pulsed ultrasound waves of 2 W/cm^2 and 1 MHz under a condition of 50% duty cycle for 10 minutes. The ultrasonic treatment was performed by suspending 5 μM of the ultrasound sensitive substance and 16 μL of the acoustic cavitation phenomenon-enhancing substance in 300 μL of saline and irradiating the mice with the ultrasound waves immediately after intratumoral administration of the resulting suspension. The states of development of the cancer were observed immediately after ultrasonic treatment, one week and three weeks thereafter.
substance,measurement,setting,value
"7,12-bis(1-(2-(2-hydroxyethoxy)ethoxy)ethyl)-3,8,13,17-tetra-methylporphyrin-2,18-dipropionato]manganese [DEG]","antitumor effect, one remaining case of three",[1],significant antitumor effect
same,"antitumor effect, two cases out of three",[1],remarkable effects
same,state of development of the cancer (tumor size),[2],dramatic regression of the cancer

# Reference: US9764029B2, “Tumor proliferation inhibitor containing ultrasound-sensitive substance and method for inhibiting tumor proliferation by using tumor proliferation inhibitor and low-intensity pulsed ultrasound waves” (Fukuoka University, priority 2010, dated 2017)
